Source: patent US12247004B2, “2-amino-N-(amino-oxo-aryl-lambda6-sulfanylidene)acetamide compounds and their therapeutic use” (Oxford Drug Design Limited, priority 2019, dated 2025)
≈ marks a conversion by molar mass, not a printed value. Read-outs that look alike come from different tables or passages of the source.

What was measured:
[1] = target: Isoleucyl-tRNA synthetase (IleRS) (Escherichia coli (strain K12), UniProt P00956); assay: Isoleucyl-tRNA synthetase enzyme inhibition (AMP-Glo; single point % inhibition at 100 μM and IC50); format: biochemical
Isoleucyl-tRNA synthetase (IleRS), sequence (P00956 whole entry, looked up): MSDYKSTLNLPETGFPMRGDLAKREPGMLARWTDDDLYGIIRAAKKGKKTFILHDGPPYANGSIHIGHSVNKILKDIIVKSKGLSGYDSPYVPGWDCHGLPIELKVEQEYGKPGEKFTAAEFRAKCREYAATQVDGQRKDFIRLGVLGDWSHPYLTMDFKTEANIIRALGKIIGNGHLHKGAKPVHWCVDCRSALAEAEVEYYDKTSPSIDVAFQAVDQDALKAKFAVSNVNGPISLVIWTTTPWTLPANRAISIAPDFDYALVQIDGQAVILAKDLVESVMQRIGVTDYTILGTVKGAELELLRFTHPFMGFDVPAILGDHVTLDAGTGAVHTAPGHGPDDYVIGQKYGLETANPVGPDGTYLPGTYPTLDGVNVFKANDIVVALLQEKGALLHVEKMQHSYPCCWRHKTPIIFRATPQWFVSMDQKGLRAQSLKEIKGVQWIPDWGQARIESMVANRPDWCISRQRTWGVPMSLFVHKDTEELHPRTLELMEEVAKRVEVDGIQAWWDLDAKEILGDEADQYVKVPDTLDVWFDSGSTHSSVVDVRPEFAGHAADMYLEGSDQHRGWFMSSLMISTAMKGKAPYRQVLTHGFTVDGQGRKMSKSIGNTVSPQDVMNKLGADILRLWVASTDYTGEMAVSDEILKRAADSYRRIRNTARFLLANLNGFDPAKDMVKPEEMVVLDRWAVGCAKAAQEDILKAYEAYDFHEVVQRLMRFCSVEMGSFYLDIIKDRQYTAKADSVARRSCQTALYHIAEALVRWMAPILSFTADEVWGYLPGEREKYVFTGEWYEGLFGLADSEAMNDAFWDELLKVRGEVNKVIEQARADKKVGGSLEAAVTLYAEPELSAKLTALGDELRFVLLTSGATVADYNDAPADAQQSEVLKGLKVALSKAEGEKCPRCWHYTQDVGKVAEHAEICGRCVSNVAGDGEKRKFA
Description: Study 1—Enzyme Inhibition
The aminoacylation reaction catalyzed by aminoacyl-tRNA synthetases (aaRS) takes place in two steps. In the first step, aaRS activates its cognate amino acid with ATP; and in the second step the activated amino acid is loaded to its corresponding tRNA. This reaction can be summarized as follows: aaRS+aa+ATP=aaRS-aa-AMP+PPi aaRS-aa-AMP+tRNA=aa-tRNA+AMP+aaRS […]
wherein: aaRS, aminoacyl-tRNA synthetase; aa, amino acid; aaRS-aa-AMP, enzyme-bound to aminoacyl-adenylate; AMP, adenosine monophosphate; aa-tRNA, aminoacyl-tRNA, PPi, inorganic pyrophosphate.
Isoleucyl-tRNA Synthetase a. Single Point Percentage Inhibition
The activity of the pathogenic aaRSs was monitored by measuring AMP production using the commercial kit AMP-Glo (Promega, Madison, USA).
Ligand stock solutions were prepared in 100% DMSO at 10 mM concentration. An assay buffer consisting of 100 mM Tris HCl pH 7.6, 40 mM MgCl, 20 mM KCl and 150 mM NaCl was prepared in dH2O. An enzyme solution containing 51.77 μM IleRS was prepared in assay buffer to provide 30 nM final assay concentration and 75 nM reservoir concentration for a 1:2.5 dilution in the assay. A substrate solution was also prepared in assay buffer with 50 mM L-isoleucine, 10 mM ATP and 100 mg/mL tRNA. A final assay concentration of 500 μM L-isoleucine, 5 μM ATP and 1 mg/mL tRNA and reservoir concentration of 833.33 μM L-isoleucine, 8.33 μM ATP and 1.67 mg/mL tRNA was used for a 1:1.66 dilution in assay.
Enzyme percentage inhibition values were recorded in triplicate at a single point concentration of 100 μM.
Using the same enzymatic assay in a 384-well plate format, ten point concentration response curves were generated for each compound using a top concentration of 100 μM. The known inhibitor, IleAMS was used as a positive control for the IleRS assay. 100% DMSO was used as a negative control. The IC50 was calculated based on non-linear regression analysis.

[2] = Human cell viability / cytotoxicity (CellTiter-Glo, 24 hours); format: cell-based; conditions: human, HepG2 cells (ATCC HB-8065); HepG2 ATCC HB-8065, 24 hours; read-out: Cytotoxicity in HepG2 ATCC HB-8065 Cell Line, IC50
Summary of the method: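 HepG2 cells (15,000/well, MEM with 1% NEAA and 1% pyruvate) were grown 2 days, then exposed to compounds in duplicate for 24 h at 1.28% DMSO. Viability was read as ATP by CellTiter-Glo luminescence relative to DMSO-only wells. IC50 is in μg/mL.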

[3] = tested on: bacteria (ATCC reference strains); assay: Antibacterial activity, MIC by broth micro-dilution (CLSI)
[4] = E. coli IleRS, read-out: Enzyme Inhibition - IC50, E. coli IleRS
[5] = Acinetobacter baumannii, read-out: Antibacterial Activity (MIC), E = A. baumannii B1931
[6] = Enterobacter cloacae, read-out: Antibacterial Activity (MIC), B = Enterobacter cloacae B1966
[7] = Escherichia coli, ATCC25922, read-out: Antibacterial Activity (MIC), A = E. coli ATCC 25922
[8] = Haemophilus influenzae, ATCC49247, read-out: Antibacterial Activity (MIC), F = H. influenzae ATCC 49247
[9] = Klebsiella pneumoniae, ATCC700603, read-out: Antibacterial Activity (MIC), C = K. pneumoniae ATCC 700603
[10] = Pseudomonas aeruginosa, ATCC27853, read-out: Antibacterial Activity (MIC), D = P. aeruginosa ATCC 27853

Row | SMILES | IC50 [1, 4] [µM] | IC50 at 24 h [2] [µg/mL] | MIC [3, 5] [µg/mL] | MIC [3, 6] [µg/mL] | MIC [3, 7] [µg/mL] | MIC [3, 8] [µg/mL] | MIC [3, 9] [µg/mL] | MIC [3, 10] [µg/mL] | IC50 [1] [µM]
1 | CC[C@H](C)[C@H](N)C(=O)N=[S@@](N)(=O)c1ccc(Cl)s1.Cl [ANASIA-029-2] | 4.59 | > 64 | > 64 | > 64 | 64 | 16 | > 64 | > 64 | –
2 | CC[C@H](C)[C@H](N)C(=O)N=[S@@](N)(=O)c1ccc(C)s1.Cl [ANASIA-031-2] | 2.65 | > 64 | > 64 | 64 | 64 | 16 | > 64 | > 64 | –
3 | CC[C@H](C)[C@H](N)C(=O)N=S(N)(=O)c1ccc(C)s1 (some centres unmarked) [ANASIA-031] | 6.7 | > 64 | > 64 | > 64 | > 64 | 64 (≈ 221 µM) | > 64 | > 64 | –
4 | CC[C@H](C)[C@H](N)C(=O)N=[S@](N)(=O)c1ccc(C)cc1.Cl [ANASIA-034-1] | – | > 64 | > 64 | > 64 | > 64 | 64 | > 64 | > 64 | 14.7
5 | CC[C@H](C)[C@H](N)C(=O)N=[S@](N)(=O)c1ccc(Cl)cc1 [ANASIA-035-1] | – | > 64 | – | – | – | – | – | – | 18.3
6 | CC[C@H](C)[C@H](N)C(=O)N=[S@@](N)(=O)c1ccc(Cl)cc1.Cl [ANASIA-035-2] | 4.65 | > 64 | > 64 | > 64 | > 64 | 64 | > 64 | > 64 | –
7 | CC[C@H](C)[C@H](N)C(=O)N=[S@](N)(=O)c1ccc(Cl)c(Cl)c1 [ANASIA-036-1] | – | > 64 | – | – | – | – | – | – | 7.86
8 | CC[C@H](C)[C@H](N)C(=O)N=S(N)(=O)c1cc2ccccc2s1 (some centres unmarked) [ANASIA-037] | 2.74 | > 64 | > 64 | > 64 | > 64 | 32 (≈ 98.3 µM) | > 64 | > 64 | –
9 | CC[C@H](C)[C@H](N)C(=O)N=S(N)(=O)c1ccc(C(F)F)s1 (some centres unmarked) [ANASIA-038] | 15.8 | > 64 | > 64 | > 64 | > 64 | 64 (≈ 197 µM) | > 64 | > 64 | –
10 | CC[C@H](C)[C@H](N)C(=O)N=[S@](N)(=O)c1cccc(Oc2ccc(Cl)cc2)c1 [ANASIA-052-1] | – | > 64 | – | – | – | – | – | – | 37.7
11 | CC[C@H](C)[C@H](N)C(=O)N=[S@](N)(=O)c1cccc(C(F)(F)F)c1 [ANASIA-072-1] | 53.1 | – | – | – | – | – | – | – | –
12 | CC[C@H](C)[C@H](N)C(=O)N=[S@](N)(=O)c1cccc(OC(F)(F)F)c1 [ANASIA-077-1] | 40.8 | – | – | – | – | – | – | – | –
13 | CC[C@H](C)[C@H](N)C(=O)N=[S@](N)(=O)c1ccsc1Cl [ANASIA-078-1] | 16.4 | – | – | – | – | – | – | – | –
